In this assay the target is T1, RPS6KA2 (RSK3) (Homo sapiens, UniProt Q15349).
T1 construct: purchased Thermo Fisher Scientific (Life Technologies) SelectScreen
In words: SelectScreen Z'LYTE. In kind it is biochemical. In short, it runs like this: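 SelectScreen broad panel; activity (Z'LYTE, Adapta) plus binding formats. ATP: Km app for CSF1R Z'LYTE; 10 for CAMK1 Adapta. Readout = % per kinase.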

Structures are written as SMILES.

T1 sequence (Q15349 whole entry): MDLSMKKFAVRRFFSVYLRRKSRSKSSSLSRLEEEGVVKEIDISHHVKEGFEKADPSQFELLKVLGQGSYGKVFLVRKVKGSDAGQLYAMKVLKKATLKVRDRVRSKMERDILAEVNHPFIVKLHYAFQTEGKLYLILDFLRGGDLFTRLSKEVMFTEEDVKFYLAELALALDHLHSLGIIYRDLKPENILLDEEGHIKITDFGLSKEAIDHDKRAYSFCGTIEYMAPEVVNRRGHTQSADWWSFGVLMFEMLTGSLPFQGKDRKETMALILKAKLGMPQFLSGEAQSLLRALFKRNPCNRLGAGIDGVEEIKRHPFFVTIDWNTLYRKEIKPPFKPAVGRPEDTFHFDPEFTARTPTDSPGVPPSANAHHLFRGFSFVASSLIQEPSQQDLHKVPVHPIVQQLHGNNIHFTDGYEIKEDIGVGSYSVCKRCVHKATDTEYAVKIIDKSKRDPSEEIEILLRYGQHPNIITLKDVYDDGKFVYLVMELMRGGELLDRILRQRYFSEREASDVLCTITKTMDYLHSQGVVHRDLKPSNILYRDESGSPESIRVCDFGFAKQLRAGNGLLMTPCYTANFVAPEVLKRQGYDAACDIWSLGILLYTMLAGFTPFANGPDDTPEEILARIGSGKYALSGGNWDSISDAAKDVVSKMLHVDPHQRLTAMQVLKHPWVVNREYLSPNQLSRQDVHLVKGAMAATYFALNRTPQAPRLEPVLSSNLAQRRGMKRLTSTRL

Take `CN(C(=O)CN1CCOCC1)c1ccc2sc3c(-c4cccc5c(=O)cc(N6CC7CCC(C6)O7)oc45)cccc3c2c1` [NU5455]: at 1 µM the inhibition was 10.8%.

The record behind these values is PMC6934184, “Selective DNA-PKcs inhibition extends the therapeutic index of localized radiotherapy and chemotherapy” (The Journal of Clinical Investigation, 2019).
